IC50 and inhibition data for 30 compounds are collected here from US8853203B2, “Diazepinone derivatives” (Novartis AG, priority 2012, dated 2014).

Assay [1] addresses human mGluR1 (Homo sapiens (Human), UniProt Q13255). Put plainly: mGluR1 antagonism, L-glutamate induced intracellular calcium increase (FLIPR) in CHO cells stably expressing human mGluR1. The conditions noted are these: for pIC50: L-glutamate induced intracellular calcium, CHO cells expressing human mGluR1, FLIPR. Type of assay: cell-based. The text has this: Activity of compounds of the present invention with respect to mGluR1 antagonism was examined by an assay based on measurements of L-glutamate induced intracellular calcium increases using a 96 well plate-based Fluorometric Imaging Plate Reader (FLIPR), and CHO cells stably expressing human mGluR1. L-glutamate induced robust calcium responses via human mGluR1 in a concentration-dependent manner and in the low micromolar range. The table below represents IC50 values of the inhibition of the glutamate-induced elevation of the intracellular calcium concentration.
(A change in cytosolic calcium serves as a functional read-out for many receptors and channels.)

For assay [2], the target named is human mGluR5a receptors (Homo sapiens (Human), UniProt P41594). Put plainly: inhibition of glutamate-induced elevation of intracellular calcium in L(tk-) cells expressing human mGluR5a. It is filed as cell-based. The following applies: glutamate-induced intracellular calcium elevation, L(tk-) cells expressing human mGluR5a; read-out: mGluR5 IC50. The text has this: Activity of compounds of the present invention was examined by determination to what extent the glutamate-induced elevation of the intracellular calcium concentration in L(tk-) cells expressing human mGluR5a receptors (see L. P. Daggett et al., Neuropharm. Vol. 34, pages 871-886, 1995) is inhibited by utilizing methods as described e.g. by L. P. Daggett et al., Neuropharm. Vol. 34, pages 871-886 (1995) and P. J. Flor et al., J. Neurochem. Vol. 67, pages 58-63 (1996).
Sequence of human mGluR5a receptors (P41594 other isoform, or with tags, fused parts or gaps): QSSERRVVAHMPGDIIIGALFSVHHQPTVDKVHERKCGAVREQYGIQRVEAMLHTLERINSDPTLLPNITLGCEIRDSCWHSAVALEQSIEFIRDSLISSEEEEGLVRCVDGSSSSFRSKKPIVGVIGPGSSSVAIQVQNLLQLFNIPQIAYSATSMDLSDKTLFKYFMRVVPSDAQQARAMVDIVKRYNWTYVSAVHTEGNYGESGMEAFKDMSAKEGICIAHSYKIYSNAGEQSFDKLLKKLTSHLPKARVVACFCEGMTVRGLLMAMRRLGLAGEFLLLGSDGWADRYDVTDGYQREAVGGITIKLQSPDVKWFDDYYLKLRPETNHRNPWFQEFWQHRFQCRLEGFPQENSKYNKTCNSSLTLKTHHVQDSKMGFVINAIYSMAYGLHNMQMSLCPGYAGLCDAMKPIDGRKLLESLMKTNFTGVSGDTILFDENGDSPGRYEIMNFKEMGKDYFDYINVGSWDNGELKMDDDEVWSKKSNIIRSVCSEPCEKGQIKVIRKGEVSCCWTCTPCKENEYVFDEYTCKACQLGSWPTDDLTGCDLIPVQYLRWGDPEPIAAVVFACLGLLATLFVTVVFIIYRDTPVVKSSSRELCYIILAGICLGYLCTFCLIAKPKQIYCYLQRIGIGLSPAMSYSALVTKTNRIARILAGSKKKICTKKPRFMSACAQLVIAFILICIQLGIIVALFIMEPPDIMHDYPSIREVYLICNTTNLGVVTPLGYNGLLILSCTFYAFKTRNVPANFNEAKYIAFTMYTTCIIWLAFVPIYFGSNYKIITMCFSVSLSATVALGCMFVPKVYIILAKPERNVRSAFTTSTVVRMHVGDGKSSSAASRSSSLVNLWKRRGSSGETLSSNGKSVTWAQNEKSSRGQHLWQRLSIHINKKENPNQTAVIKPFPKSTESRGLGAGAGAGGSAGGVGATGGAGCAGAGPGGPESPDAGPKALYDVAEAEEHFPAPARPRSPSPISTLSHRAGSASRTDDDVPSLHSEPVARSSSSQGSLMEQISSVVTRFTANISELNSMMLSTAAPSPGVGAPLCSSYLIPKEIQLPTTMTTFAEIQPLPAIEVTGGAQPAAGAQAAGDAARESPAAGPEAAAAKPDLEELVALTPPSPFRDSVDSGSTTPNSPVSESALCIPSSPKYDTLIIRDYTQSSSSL

pIC50: −log10 of the molar value.

Sequence of human mGluR1 (Q13255 19-1194): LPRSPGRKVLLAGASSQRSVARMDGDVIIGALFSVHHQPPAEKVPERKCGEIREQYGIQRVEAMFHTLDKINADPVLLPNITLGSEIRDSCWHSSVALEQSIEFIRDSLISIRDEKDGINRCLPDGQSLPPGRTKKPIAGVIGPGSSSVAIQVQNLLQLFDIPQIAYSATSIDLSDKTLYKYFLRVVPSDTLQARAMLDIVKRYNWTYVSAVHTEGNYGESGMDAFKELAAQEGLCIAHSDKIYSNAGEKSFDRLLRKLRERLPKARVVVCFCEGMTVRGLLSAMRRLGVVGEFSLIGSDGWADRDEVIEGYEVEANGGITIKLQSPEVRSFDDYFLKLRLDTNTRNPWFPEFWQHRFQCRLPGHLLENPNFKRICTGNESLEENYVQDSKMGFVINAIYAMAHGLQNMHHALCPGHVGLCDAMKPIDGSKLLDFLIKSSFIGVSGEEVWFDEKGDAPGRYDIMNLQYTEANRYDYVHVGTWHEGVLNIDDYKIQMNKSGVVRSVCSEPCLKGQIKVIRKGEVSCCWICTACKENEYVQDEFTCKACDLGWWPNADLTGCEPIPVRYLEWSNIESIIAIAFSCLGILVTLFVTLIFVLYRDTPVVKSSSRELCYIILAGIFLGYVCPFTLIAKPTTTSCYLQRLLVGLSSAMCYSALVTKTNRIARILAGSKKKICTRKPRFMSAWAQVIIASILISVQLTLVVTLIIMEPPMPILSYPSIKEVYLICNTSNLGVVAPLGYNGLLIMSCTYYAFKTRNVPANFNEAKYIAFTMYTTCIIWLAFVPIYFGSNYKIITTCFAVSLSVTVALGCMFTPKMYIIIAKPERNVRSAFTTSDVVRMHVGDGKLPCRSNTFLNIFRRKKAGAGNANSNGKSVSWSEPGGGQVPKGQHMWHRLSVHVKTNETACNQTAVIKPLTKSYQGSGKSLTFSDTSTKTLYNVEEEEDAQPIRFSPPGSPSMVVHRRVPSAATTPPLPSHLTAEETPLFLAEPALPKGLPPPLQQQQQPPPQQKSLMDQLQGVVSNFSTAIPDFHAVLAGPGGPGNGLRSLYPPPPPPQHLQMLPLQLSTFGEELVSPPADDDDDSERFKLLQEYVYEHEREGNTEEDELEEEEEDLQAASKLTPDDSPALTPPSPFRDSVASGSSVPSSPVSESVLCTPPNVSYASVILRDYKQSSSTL

Turning to `COc1cccc2c1CCN1C(=O)CN=C(c3ccnc(N(C)C)c3)C=C21` [Example 21, 2-(2-(dimethylamino)pyridin-4-yl)-9-methoxy-7,8-dihydro-[1,4]diazepino[7,1-a]isoquinolin-5(4H)-one], the pIC50 (usually the negative decadic logarithm of the IC50, by convention in mol/L) was 5.28 in assay [1] and 5.41 in assay [2].

Take `COc1cc(C2=NCC(=O)N3CCc4c(cccc4N4CCOCC4)C3=C2)ccn1` [Example 22, 2-(2-methoxypyridin-4-yl)-9-morpholino-7,8-dihydro-[1,4]diazepino[7,1-a]isoquinolin-5(4H)-one]: the pIC50 in assay [1] is under 5.00; in assay [2], 7.15.

Turning to `Cc1ccc(C2=NCC(=O)N3CCc4c(cccc4N4CCOCC4)C3=C2)o1` [Example 23, 2-(5-methylfuran-2-yl)-9-morpholino-7,8-dihydro-[1,4]diazepino[7,1-a]isoquinolin-5(4H)-one], the values for the pIC50 in assay [1] and in assay [2] were under 5.00 and 7.66, respectively.

As to `Cn1ccc(C2=NCC(=O)N3CCc4c(cccc4N4CCOCC4)C3=C2)n1` [Example 24, 2-(1-methyl-1H-pyrazol-3-yl)-9-morpholino-7,8-dihydro-[1,4]diazepino[7,1-a]isoquinolin-5(4H)-one], the pIC50 in assay [1] was under 5.00; in assay [2] it was 7.46.

In the case of `Cn1cc(C2=NCC(=O)N3CCc4c(cccc4N4CCOCC4)C3=C2)cn1` [Example 25, 2-(1-methyl-1H-pyrazol-4-yl)-9-morpholino-7,8-dihydro-[1,4]diazepino[7,1-a]isoquinolin-5(4H)-one], the pIC50 is under 5.00 in assay [1] and 7.18 in assay [2].

On to `COc1cccc(C2=NCC(=O)N3CCc4c(cccc4C(C)(C)O)C3=C2)c1` [Example 26, 9-(2-hydroxypropan-2-yl)-2-(3-methoxyphenyl)-7,8-dihydro-[1,4]diazepino[7,1-a]isoquinolin-5(4H)-one], for which the pIC50 in assay [1] was under 5.00; in assay [2], 6.63.

On to `Cn1ccc(C2=NCC(=O)N3CCc4c(cccc4C(C)(C)O)C3=C2)n1` [Example 27, 9-(2-hydroxypropan-2-yl)-2-(1-methyl-1H-pyrazol-3-yl)-7,8-dihydro-[1,4]diazepino[7,1-a]isoquinolin-5(4H)-one], for which the pIC50 in assay [1] was under 5.00; in assay [2], 6.36.

With `O=C1CN=C(c2ccco2)C=C2c3cccc(-c4ccncc4)c3CCN12` [Example 28, 2-(furan-2-yl)-9-(pyridin-4-yl)-7,8-dihydro-[1,4]diazepino[7,1-a]isoquinolin-5(4H)-one], the pIC50 in assay [1] was 5.32; in assay [2], 7.10.

`O=C1CN=C(c2cccs2)C=C2c3cccc(Br)c3CCN12` [Example 29, 9-bromo-2-(thiophen-2-yl)-7,8-dihydro-[1,4]diazepino[7,1-a]isoquinolin-5(4H)-one]: the values for the pIC50 in assay [1] and in assay [2] were 8.10 and 7.05, respectively.

For `COc1cccc(C2=NCC(=O)N3CCc4c(I)cccc4C3=C2)c1` [Example 30, 9-iodo-2-(3-methoxyphenyl)-7,8-dihydro-[1,4]diazepino[7,1-a]isoquinolin-5(4H)-one], the pIC50 in assay [1] is 5.85; in assay [2] it was 6.82.

As to `Cn1ccc(C2=NCC(=O)N3CCc4c(I)cccc4C3=C2)n1` [Example 31, 9-iodo-2-(1-methyl-1H-pyrazol-3-yl)-7,8-dihydro-[1,4]diazepino[7,1-a]isoquinolin-5(4H)-one], the figures for the pIC50 in assay [1] and in assay [2] were 5.89 and 6.78, respectively.

As to `COc1cc(C2=NCC(=O)N3CCc4c(I)cccc4C3=C2)ccn1` [Example 33, 9-iodo-2-(2-methoxypyridin-4-yl)-7,8-dihydro-[1,4]diazepino[7,1-a]isoquinolin-5(4H)-one], the pIC50 in assay [1] is 5.85; in assay [2] it was 7.89.

As for `O=C1CN=C(c2ccoc2)C=C2c3cccc(I)c3CCN12` [Example 34, 2-(furan-3-yl)-9-iodo-7,8-dihydro-[1,4]diazepino[7,1-a]isoquinolin-5(4H)-one], the pIC50 in assay [1] was 7.03; in assay [2], 7.39.

Take `CC(C)n1cc(C2=NCC(=O)N3CCc4c(I)cccc4C3=C2)cn1` [Example 35, 9-iodo-2-(1-isopropyl-1H-pyrazol-4-yl)-7,8-dihydro-[1,4]diazepino[7,1-a]isoquinolin-5(4H)-one]: the negative logarithm of the IC50 (pIC50) in assay [1] is 7.82; in assay [2], 7.85.

Regarding `Cn1cnc(C2=NCC(=O)N3CCc4c(I)cccc4C3=C2)c1` [Example 36, 9-iodo-2-(1-methyl-1H-imidazol-4-yl)-7,8-dihydro-[1,4]diazepino[7,1-a]isoquinolin-5(4H)-one], the pIC50 in assay [1] was 5.16; in assay [2], 5.42.

As to `COc1cccc2c1CCN1C(=O)CN=C(c3cnc4c(c3)OCCN4C)C=C21` [Example 36a, 9-methoxy-2-(4-methyl-3,4-dihydro-2H-pyrido[3,2-b][1,4]oxazin-7-yl)-7,8-dihydro-[1,4]diazepino[7,1-a]isoquinolin-5(4H)-one], in assay [1] (CHO), the inhibition (commonly how much of the control response was suppressed) at 10 µM came to 1%. The pIC50 in assay [2] was 5.26.

As to `CCc1cccc2c1CCN1C(=O)CN=C(c3cccc(OC)c3)C=C21` [Example 37, 9-ethyl-2-(3-methoxyphenyl)-7,8-dihydro-[1,4]diazepino[7,1-a]isoquinolin-5(4H)-one], the results for the pIC50 in assay [1] and in assay [2] were 5.66 and 7.11, respectively.

In the case of `C#Cc1cccc2c1CCN1C(=O)CN=C(c3cccs3)C=C21` [Example 38, 9-ethynyl-2-(thiophen-2-yl)-7,8-dihydro-[1,4]diazepino[7,1-a]isoquinolin-5(4H)-one], the pIC50 in assay [1] was 7.66; in assay [2], 7.30.

As for `N#Cc1cccc2c1CCN1C(=O)CN=C(c3cccs3)C=C21` [Example 39, 5-oxo-2-(thiophen-2-yl)-4,5,7,8-tetrahydro-[1,4]diazepino[7,1-a]isoquinoline-9-carbonitrile], the pIC50 in assay [1] was 5.80; in assay [2], 6.21.

`Cn1ccc(C2=NCC(=O)N3CCc4c(C#N)cccc4C3=C2)n1` [Example 40, 2-(1-methyl-1H-pyrazol-3-yl)-5-oxo-4,5,7,8-tetrahydro-[1,4]diazepino[7,1-a]isoquinoline-9-carbonitrile]: the negative logarithm of the IC50 (pIC50) in assay [1] was under 5.00; in assay [2], 5.28.

Take `COc1cccc(C2=NCC(=O)N3CCc4c(cccc4N4CCOCC4)C3=C2)c1` [Example 41, 2-(3-methoxyphenyl)-9-morpholino-7,8-dihydro-[1,4]diazepino[7,1-a]isoquinolin-5(4H)-one]: the pIC50 in assay [1] was under 5.00; in assay [2], 7.49.

Consider `CC(C)n1cc(C2=NCC(=O)N3CCc4c(cccc4-n4cccn4)C3=C2)cn1` [Example 42, 2-(1-isopropyl-1H-pyrazol-4-yl)-9-(1H-pyrazol-1-yl)-7,8-dihydro-[1,4]diazepino[7,1-a]isoquinolin-5(4H)-one], for which the pIC50 is 5.47 in assay [1] and 7.49 in assay [2].

As for `COc1cccc(C2=NCC(=O)N3CCc4c(CN(C)C)cccc4C3=C2)c1` [Example 43, 9-((dimethylamino)methyl)-2-(3-methoxyphenyl)-7,8-dihydro-[1,4]diazepino[7,1-a]isoquinolin-5(4H)-one], the pIC50 was under 5.00 in assay [1] and 6.16 in assay [2].

Take `COCCOCc1cccc2c1CCN1C(=O)CN=C(c3cccc(OC)c3)C=C21` [Example 44, 9-((2-methoxyethoxy)methyl)-2-(3-methoxyphenyl)-7,8-dihydro-[1,4]diazepino[7,1-a]isoquinolin-5(4H)-one]: the negative logarithm of the IC50 (pIC50) in assay [1] was under 5.00; in assay [2], 5.80.

`Cn1ccc(C2=NCC(=O)N3CCc4c(CO)cccc4C3=C2)n1` [Example 45, 9-(hydroxymethyl)-2-(1-methyl-1H-pyrazol-3-yl)-7,8-dihydro-[1,4]diazepino[7,1-a]isoquinolin-5(4H)-one]: the pIC50 in assay [1] is under 5.00; in assay [2] it was 6.15.

For `Cn1cc(C2=NCC(=O)N3CCc4c(CO)cccc4C3=C2)cn1` [Example 46, 9-(hydroxymethyl)-2-(1-methyl-1H-pyrazol-4-yl)-7,8-dihydro-[1,4]diazepino[7,1-a]isoquinolin-5(4H)-one], the negative-log IC50 (pIC50) in assay [1] is 5.66; in assay [2] it was 6.57.

For the compound `COC(C)c1cccc2c1CCN1C(=O)CN=C(c3ccn(C)n3)C=C21` (stereo not drawn) [Example 47, 9-(1-methoxyethyl)-2-(1-methyl-1H-pyrazol-3-yl)-7,8-dihydro-[1,4]diazepino[7,1-a]isoquinolin-5(4H)-one], the pIC50 is 5.47 in assay [1] and 7.15 in assay [2].

As to `COc1cccc(C2=NCC(=O)N3CCc4c(C(C)=O)cccc4C3=C2)c1` [Example 48, 9-acetyl-2-(3-methoxyphenyl)-7,8-dihydro-[1,4]diazepino[7,1-a]isoquinolin-5(4H)-one], the figures for the pIC50 in assay [1] and in assay [2] were 5.64 and 7.46, respectively.

As to `COc1cccc(C2=NCC(=O)N3CCc4c(cccc4-c4ccccc4)C3=C2)c1` [Example 49, 2-(3-methoxyphenyl)-9-phenyl-7,8-dihydro-[1,4]diazepino[7,1-a]isoquinolin-5(4H)-one], the pIC50 was under 5.00 in assay [1] and 5.89 in assay [2].

As for `COc1cc(C2=NCC(=O)N3CCc4c(cccc4-c4ccccn4)C3=C2)ccn1` [Example 50, 2-(2-methoxypyridin-4-yl)-9-(pyridin-2-yl)-7,8-dihydro-[1,4]diazepino[7,1-a]isoquinolin-5(4H)-one], the pIC50 in assay [1] is under 5.00; in assay [2] it was 7.34.
